ChEMBL document CHEMBL5357078, “Synthesis and Structural Optimization of ATG4B Inhibitors for the Attenuation of Autophagy in Glioblastoma” (ACS Med Chem Lett, 2024)
Activity calls are given as the source filed them.

Assays:
Type in all cases: functional, cell-based
GSC83 [1] = assay: Induction of autophagy in human GSC83 cells assessed as inhibition of ATG4B-induced LC3-1 to LC3-2 conversion incubated for 72 hrs by immunoblotting analysis
GSC83 [2] = assay: Induction of autophagy in human GSC83 cells assessed as degradation of p62/SQSTM1 substrate incubated for 72 hrs by immunoblotting analysis
GSC576 [3] = assay: Induction of autophagy in human GSC576 cells assessed as degradation of p62/SQSTM1 substrate incubated for 72 hrs by immunoblotting analysis
GSC576 [4] = assay: Induction of autophagy in human GSC576 cells assessed as inhibition of ATG4B-induced LC3-1 to LC3-2 conversion incubated for 72 hrs by immunoblotting analysis
GSC83 [5] = assay: Induction of autophagy in human GSC83 cells assessed as inhibition of sphere formation upto 100 uM incubated for 7 days; conditions: time 7.0 day
GSC576 [6] = assay: Induction of autophagy in human GSC576 cells assessed as inhibition of sphere formation upto 100 uM incubated for 7 days; conditions: time 7.0 day
GSC83 [7] = assay: Antiproliferative activity against human GSC83 cells assessed as reduction in cell viability upto 100 uM incubated for 72 hrs by celltiter glo luminescent assay
GSC576 [8] = assay: Antiproliferative activity against human GSC576 cells assessed as reduction in cell viability upto 100 uM incubated for 72 hrs by celltiter glo luminescent assay
GSC83 [9] = assay: Induction of autophagy in human GSC83 cells assessed as inhibition of sphere formation upto 10 uM incubated for 7 days; conditions: time 7.0 day
GSC576 [10] = assay: Induction of autophagy in human GSC576 cells assessed as inhibition of sphere formation upto 10 uM incubated for 7 days; conditions: time 7.0 day

Measured: Activity

S=C(Nc1ccccn1)c1ccccn1
active: GSC83 [1] | GSC83 [2] | GSC576 [3] | GSC576 [4] | GSC83 [5] | GSC576 [6]

S=C(Nc1ccccn1)c1ccc2ccccc2n1
not listed: GSC83 [5] | GSC576 [6]
active: all other assays above
